Data as given in ChEMBL document CHEMBL1156987, “Novel azalides derived from 16-membered macrolides. III. Azalides modified at the C-15 and 4'' positions: Improved antibacterial activities” (Bioorg Med Chem, 2010).
≈ marks a conversion by molar mass, not a printed value.

Key:
Format in all cases: functional
Staphylococcus aureus = test: Antibacterial activity against Staphylococcus aureus 209P JC1 after 20 hrs by agar dilution method; conditions: 209P JC1, 20 h
Streptococcus pneumoniae [1] = test: Antibacterial activity against Streptococcus pneumoniae DP1 type 1 after 20 hrs by agar dilution method; conditions: DP1 type1, 20 h
Streptococcus pneumoniae [2] = test: Antibacterial activity against Streptococcus pneumoniae 5 expressing constitutive ermB methylase after 20 hrs by agar dilution method; conditions: Streptococcus pneumoniae, 5, 20 h
Streptococcus pneumoniae [3] = test: Antibacterial activity against Streptococcus pneumoniae 6 expressing constitutive ermB methylase and mefA after 20 hrs by agar dilution method; conditions: Streptococcus pneumoniae, 6, 20 h
Streptococcus pneumoniae [4] = test: Antibacterial activity against Streptococcus pneumoniae 7 expressing constitutive ermB methylase after 20 hrs by agar dilution method; conditions: Streptococcus pneumoniae, 7, 20 h
Streptococcus pneumoniae [5] = test: Antibacterial activity against Streptococcus pneumoniae 8 expressing inducible ermB methylase after 20 hrs by agar dilution method; conditions: Streptococcus pneumoniae, 8, 20 h
Streptococcus pneumoniae [6] = test: Antibacterial activity against Streptococcus pneumoniae 9 expressing inducible ermB methylase after 20 hrs by agar dilution method; conditions: Streptococcus pneumoniae, 9, 20 h
Streptococcus pneumoniae [7] = test: Antibacterial activity against Streptococcus pneumoniae 10 expressing mefA efflux pump after 20 hrs by agar dilution method; conditions: Streptococcus pneumoniae, 10, 20 h
Streptococcus pneumoniae [8] = test: Antibacterial activity against Streptococcus pneumoniae 11 expressing mefA efflux pump after 20 hrs by agar dilution method; conditions: Streptococcus pneumoniae, 11, 20 h
Streptococcus pyogenes [9] = test: Antibacterial activity against Streptococcus pyogenes Cook after 20 hrs by agar dilution method
Streptococcus pyogenes [10] = test: Antibacterial activity against Streptococcus pyogenes 2 expressing constitutive ermB methylase after 20 hrs by agar dilution method; conditions: Streptococcus pyogenes, 2, 20 h
Streptococcus pyogenes [11] = test: Antibacterial activity against Streptococcus pyogenes 3 expressing mefA efflux pump after 20 hrs by agar dilution method; conditions: Streptococcus pyogenes, 3, 20 h
Haemophilus influenzae [12] = test: Antibacterial activity against Haemophilus influenzae 1 after 20 hrs by agar dilution method; conditions: Haemophilus influenzae, 1, 20 h
Haemophilus influenzae [13] = test: Antibacterial activity against Haemophilus influenzae 2 after 20 hrs by agar dilution method; conditions: Haemophilus influenzae, 2, 20 h
Haemophilus influenzae [14] = test: Antibacterial activity against Haemophilus influenzae 3 after 20 hrs by agar dilution method; conditions: Haemophilus influenzae, 3, 20 h

| SMILES | MIC (Staphylococcus aureus) [µg/mL] | MIC (Streptococcus pneumoniae [1]) [µg/mL] | MIC (Streptococcus pneumoniae [2]) [µg/mL] | MIC (Streptococcus pneumoniae [3]) [µg/mL] | MIC (Streptococcus pneumoniae [4]) [µg/mL] | MIC (Streptococcus pneumoniae [5]) [µg/mL] | MIC (Streptococcus pneumoniae [6]) [µg/mL] | MIC (Streptococcus pneumoniae [7]) [µg/mL] | MIC (Streptococcus pneumoniae [8]) [µg/mL] | MIC (Streptococcus pyogenes [9]) [µg/mL] | MIC (Streptococcus pyogenes [10]) [µg/mL] | MIC (Streptococcus pyogenes [11]) [µg/mL] | MIC (Haemophilus influenzae [12]) [µg/mL] | MIC (Haemophilus influenzae [13]) [µg/mL] | MIC (Haemophilus influenzae [14]) [µg/mL] |
| --- | --- | --- | --- | --- | --- | --- | --- | --- | --- | --- | --- | --- | --- | --- | --- |
| CCCNC(=O)O[C@H]1[C@H](C)O[C@@H](O[C@H]2[C@H](N(C)C)[C@@H](O)[C@H](O[C@H]3[C@@H](CC=O)C[C@@H](C)[C@@H](O)CN(C)CCC[C@H](C/C=C/c4cnc5ccccc5c4)OC(=O)C[C@@H](OC(=O)CC)[C@@H]3OC)O[C@@H]2C)C[C@@]1(C)OC(=O)CC | 0.5 (≈ 0.467 µM) | 0.03 (≈ 0.028 µM) | 16 (≈ 14.9 µM) | 32 (≈ 29.9 µM) | 16 (≈ 14.9 µM) | 0.25 (≈ 0.233 µM) | 0.25 (≈ 0.233 µM) | 0.06 (≈ 0.056 µM) | 0.06 (≈ 0.056 µM) | 0.13 (≈ 0.121 µM) | 64 (≈ 59.7 µM) | 0.25 (≈ 0.233 µM) | 8 (≈ 7.47 µM) | 32 (≈ 29.9 µM) | 32 (≈ 29.9 µM) |
| CCC(=O)O[C@@H]1CC(=O)O[C@@H](C/C=C/c2cnc3ccccc3c2)CCCN(C)C[C@H](O)[C@H](C)C[C@H](CC=O)[C@H](O[C@@H]2O[C@H](C)[C@@H](O[C@H]3C[C@@](C)(OC(=O)CC)[C@@H](OC(=O)NC(C)C)[C@H](C)O3)[C@H](N(C)C)[C@H]2O)[C@H]1OC | 0.5 (≈ 0.467 µM) | 0.03 (≈ 0.028 µM) | 16 (≈ 14.9 µM) | 16 (≈ 14.9 µM) | 16 (≈ 14.9 µM) | 0.25 (≈ 0.233 µM) | 0.25 (≈ 0.233 µM) | 0.06 (≈ 0.056 µM) | 0.13 (≈ 0.121 µM) | 0.13 (≈ 0.121 µM) | 32 (≈ 29.9 µM) | 0.25 (≈ 0.233 µM) | 8 (≈ 7.47 µM) | 32 (≈ 29.9 µM) | 32 (≈ 29.9 µM) |
| CCC(=O)O[C@@H]1CC(=O)O[C@@H](C/C=C/c2cnc3ccccc3c2)CCCN(C)C[C@H](O)[C@H](C)C[C@H](CC=O)[C@H](O[C@@H]2O[C@H](C)[C@@H](O[C@H]3C[C@@](C)(OC(=O)CC)[C@@H](OC(=O)N(C)C)[C@H](C)O3)[C@H](N(C)C)[C@H]2O)[C@H]1OC | 0.25 (≈ 0.236 µM) | 0.03 (≈ 0.0284 µM) | 32 (≈ 30.3 µM) | > 32 | > 32 | 0.25 (≈ 0.236 µM) | 0.5 (≈ 0.473 µM) | 0.06 (≈ 0.0567 µM) | 0.06 (≈ 0.0567 µM) | 0.06 (≈ 0.0567 µM) | > 32 | 0.06 (≈ 0.0567 µM) | 8 (≈ 7.57 µM) | 32 (≈ 30.3 µM) | 32 (≈ 30.3 µM) |
| CCC(=O)O[C@@H]1CC(=O)O[C@@H](C/C=C/c2cnc3ccccc3c2)CCCN(C)C[C@H](O)[C@H](C)C[C@H](CC=O)[C@H](O[C@@H]2O[C@H](C)[C@@H](O[C@H]3C[C@@](C)(OC(=O)CC)[C@@H](OC(=O)NCCO)[C@H](C)O3)[C@H](N(C)C)[C@H]2O)[C@H]1OC | 0.5 (≈ 0.466 µM) | 0.015 (≈ 0.014 µM) | > 32 | 32 (≈ 29.8 µM) | 32 (≈ 29.8 µM) | 0.25 (≈ 0.233 µM) | 0.5 (≈ 0.466 µM) | 0.015 (≈ 0.014 µM) | 0.015 (≈ 0.014 µM) | 0.06 (≈ 0.0559 µM) | > 32 | 0.13 (≈ 0.121 µM) | 4 (≈ 3.73 µM) | 16 (≈ 14.9 µM) | 16 (≈ 14.9 µM) |
| CCNC(=O)O[C@H]1[C@H](C)O[C@@H](O[C@H]2[C@H](N(C)C)[C@@H](O)[C@H](O[C@H]3[C@@H](CC=O)C[C@@H](C)[C@@H](O)CN(C)CCC[C@H](C/C=C/c4ccnc5ccccc45)OC(=O)C[C@@H](OC(=O)CC)[C@@H]3OC)O[C@@H]2C)C[C@@]1(C)OC(=O)CC | 0.5 (≈ 0.473 µM) | 0.015 (≈ 0.0142 µM) | 64 (≈ 60.5 µM) | 64 (≈ 60.5 µM) | 64 (≈ 60.5 µM) | 0.5 (≈ 0.473 µM) | 0.5 (≈ 0.473 µM) | 0.03 (≈ 0.0284 µM) | 0.03 (≈ 0.0284 µM) | 0.06 (≈ 0.0567 µM) | > 128 | 0.25 (≈ 0.236 µM) | 8 (≈ 7.57 µM) | 32 (≈ 30.3 µM) | 16 (≈ 15.1 µM) |
| CCNC(=O)O[C@H]1[C@H](C)O[C@@H](O[C@H]2[C@H](N(C)C)[C@@H](O)[C@H](O[C@H]3[C@@H](CC=O)C[C@@H](C)[C@@H](O)CN(C)CCC[C@H](C/C=C/c4cncc5ccccc45)OC(=O)C[C@@H](OC(=O)CC)[C@@H]3OC)O[C@@H]2C)C[C@@]1(C)OC(=O)CC | 0.5 (≈ 0.473 µM) | 0.015 (≈ 0.0142 µM) | 8 (≈ 7.57 µM) | 8 (≈ 7.57 µM) | 8 (≈ 7.57 µM) | 0.13 (≈ 0.123 µM) | 0.25 (≈ 0.236 µM) | 0.03 (≈ 0.0284 µM) | 0.03 (≈ 0.0284 µM) | 0.06 (≈ 0.0567 µM) | 128 (≈ 121 µM) | 0.25 (≈ 0.236 µM) | 8 (≈ 7.57 µM) | 16 (≈ 15.1 µM) | 16 (≈ 15.1 µM) |
